Here are results for nine compounds from PubChem BioAssay (NCI).

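Each compound was tested at five concentrations against cells in 96-well plates for 48 hours. The concentration for 50% growth inhibition is given as GI50. Definition used: TGI = concentration required for complete inhibition of growth.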

Some test systems named below: SK-MEL-28 melanoma; MALME-3M melanoma; U251 CNS; OVCAR-3 ovarian; MCF7 breast; SF-539 CNS; IGROV1 ovarian; TK-10 renal; MOLT-4 leukemia; OVCAR-5 ovarian.
Holding throughout (assay): NCI-60 cell line screen, 48 h

`C/C(=C\c1ccn(-c2ccc(N)c(F)c2)n1)[C@@H]1C[C@@H]2O[C@]2(C)CCC[C@H](C)[C@H](O)[C@@H](C)C(=O)C(C)(C)[C@@H](O)CC(=O)O1`: the GI50 is 7.03 µM with SK-MEL-28 melanoma; 0.0217 µM in the assay on MALME-3M melanoma; below 0.005 µM in the assay on U251 CNS; 0.00815 µM in the assay on OVCAR-3 ovarian; 0.00601 µM in the assay with MCF7 breast; 0.012 µM in the assay with SF-539 CNS. In addition, the GI50 in the assay with IGROV1 ovarian is 0.0599 µM; in the assay with TK-10 renal, 0.064 µM; in the assay with MOLT-4 leukemia, 0.0106 µM; with OVCAR-5 ovarian, 0.0472 µM. For the same compound, the TGI in the assay on SK-MEL-28 melanoma is above 50 µM; in the assay with MALME-3M melanoma it was above 50 µM; in the assay with U251 CNS, above 50 µM; in the assay with OVCAR-3 ovarian, 0.0747 µM; in the assay with MCF7 breast, above 50 µM; with SF-539 CNS, 0.11 µM. In addition, the TGI in the assay with IGROV1 ovarian, in the assay with TK-10 renal, in the assay on MOLT-4 leukemia and in the assay on OVCAR-5 ovarian was above 50 µM in each case.
`O=C(/C=C/c1cccs1)c1ccc(Nc2nc(Nc3ccc(F)cc3)nc(Nc3ccc(F)cc3)n2)cc1`: the GI50 was 18.2 µM with SK-MEL-28 melanoma; 40.4 µM in the assay with MALME-3M melanoma; 18.3 µM in the assay with U251 CNS; 17.7 µM in the assay on OVCAR-3 ovarian; 14 µM in the assay on MCF7 breast; 17.8 µM in the assay with SF-539 CNS. In addition, the GI50 in the assay with IGROV1 ovarian was 18 µM; in the assay with TK-10 renal, 40.4 µM; with MOLT-4 leukemia, 29.1 µM; in the assay on OVCAR-5 ovarian, above 100 µM. The TGI was 39.1 µM in the assay on SK-MEL-28 melanoma; above 100 µM in the assay on MALME-3M melanoma; 35.4 µM in the assay on U251 CNS; 35.3 µM in the assay on OVCAR-3 ovarian; 46.2 µM in the assay with MCF7 breast; 35.7 µM in the assay with SF-539 CNS. The TGI with IGROV1 ovarian is 41 µM; in the assay on TK-10 renal, above 100 µM; in the assay with MOLT-4 leukemia, above 100 µM; in the assay on OVCAR-5 ovarian it was above 100 µM.
For the compound `COC1(O)C(=O)c2ccccc2OC1(OC)c1ccccc1` (stereo not given), the TGI in the assay on SK-MEL-28 melanoma, in the assay on MALME-3M melanoma, in the assay with U251 CNS, in the assay with OVCAR-3 ovarian, with MCF7 breast and in the assay with SF-539 CNS was above 100 µM in each case. Also, the TGI in the assay on IGROV1 ovarian, in the assay on TK-10 renal, with MOLT-4 leukemia and in the assay with OVCAR-5 ovarian was above 100 µM throughout.
In the case of `COc1cc2c3c(n(CCCNCC(OC)OC)c(=O)c2cc1OC)-c1cc2c(cc1C3=O)OCO2`, the GI50 with SK-MEL-28 melanoma is 18.4 µM; in the assay with MALME-3M melanoma, 21 µM; in the assay with U251 CNS, 4.32 µM; with OVCAR-3 ovarian it was 3.81 µM; in the assay on MCF7 breast, below 0.0315 µM; with SF-539 CNS, 2.42 µM. In addition, the GI50 is 10.3 µM in the assay with IGROV1 ovarian, 11.9 µM with TK-10 renal, below 0.01 µM in the assay with MOLT-4 leukemia and 16.9 µM in the assay with OVCAR-5 ovarian. In addition, the TGI was 36.3 µM in the assay with SK-MEL-28 melanoma; 47.6 µM in the assay on MALME-3M melanoma; above 48.6 µM in the assay on U251 CNS; 32.7 µM in the assay on OVCAR-3 ovarian; above 48.6 µM with MCF7 breast; 24.9 µM with SF-539 CNS. The TGI in the assay on IGROV1 ovarian was above 74.4 µM; in the assay on TK-10 renal, 47.8 µM; in the assay with MOLT-4 leukemia, 1.14 µM; with OVCAR-5 ovarian, 37.8 µM.
With `Cc1cc(NC(=O)NC(=O)c2ccccc2N)ccc1Oc1ncc(Br)cn1`, the TGI in the assay on SK-MEL-28 melanoma was above 100 µM; in the assay on MALME-3M melanoma it was above 69.9 µM; in the assay with U251 CNS, 7.25 µM; with OVCAR-3 ovarian, below 0.0173 µM; with MCF7 breast, 18.6 µM; in the assay with SF-539 CNS, 0.287 µM. Besides, the TGI is 24 µM in the assay on IGROV1 ovarian, 35.1 µM in the assay on TK-10 renal, above 30.3 µM in the assay on MOLT-4 leukemia and above 100 µM in the assay on OVCAR-5 ovarian.
In the case of `O=C1/C(=C/c2ccc([N+](=O)[O-])o2)Oc2ccc(Br)cc21`, the GI50 was 2.19 µM in the assay with SK-MEL-28 melanoma; 1.92 µM in the assay on MALME-3M melanoma; 14.9 µM in the assay with U251 CNS; 1.99 µM in the assay with OVCAR-3 ovarian; 2.05 µM with MCF7 breast; 1.89 µM in the assay on SF-539 CNS. The GI50 with IGROV1 ovarian was 1.94 µM; in the assay on TK-10 renal it was 2.11 µM; with MOLT-4 leukemia, 3.07 µM; in the assay on OVCAR-5 ovarian it was 2.57 µM. Also, the TGI in the assay with SK-MEL-28 melanoma was determined as 4.83 µM; with MALME-3M melanoma, 4.74 µM; in the assay on U251 CNS, 28.7 µM; in the assay on OVCAR-3 ovarian, 3.56 µM; with MCF7 breast it was 5.17 µM; in the assay with SF-539 CNS it was 4.19 µM. Also, the TGI in the assay on IGROV1 ovarian turned out to be 4.1 µM; with TK-10 renal, 3.88 µM; in the assay on MOLT-4 leukemia, 9.4 µM; with OVCAR-5 ovarian, 9.17 µM.
Consider `NC(=O)c1cc([N+](=O)[O-])c(Cl)c([N+](=O)[O-])c1`, for which the GI50 with SK-MEL-28 melanoma was 2.05 µM; in the assay with MALME-3M melanoma, 2.27 µM; in the assay with U251 CNS, 2.31 µM; in the assay on OVCAR-3 ovarian, 1.97 µM; with MCF7 breast, 1.97 µM; in the assay on SF-539 CNS it was 2.02 µM. The GI50 in the assay on IGROV1 ovarian was 3.01 µM; with TK-10 renal it was 1.91 µM; in the assay with MOLT-4 leukemia, 2.62 µM; with OVCAR-5 ovarian, 5.53 µM. In addition, the TGI was 4.34 µM in the assay on SK-MEL-28 melanoma; 4.54 µM in the assay with MALME-3M melanoma; 5.61 µM with U251 CNS; 3.51 µM in the assay with OVCAR-3 ovarian; 4.06 µM with MCF7 breast; 4 µM with SF-539 CNS. Further, the TGI came out at 7.9 µM in the assay with IGROV1 ovarian, 3.36 µM in the assay with TK-10 renal, 5.68 µM in the assay with MOLT-4 leukemia and 17.6 µM with OVCAR-5 ovarian.
Regarding `Cc1ccc2c(c1C)-c1c(ccc(C)c1C)C(=O)C2=O`, the TGI in the assay on SK-MEL-28 melanoma came to 2.83 µM; in the assay with MALME-3M melanoma, 1.83 µM; in the assay with U251 CNS it was 12.8 µM; with OVCAR-3 ovarian it was 1.1 µM; in the assay on MCF7 breast, 0.809 µM; in the assay on SF-539 CNS, 0.42 µM. Also, the TGI was 4.75 µM in the assay on IGROV1 ovarian, 9.11 µM with TK-10 renal, 0.686 µM in the assay on MOLT-4 leukemia and 3.42 µM in the assay on OVCAR-5 ovarian.
As to `C=C(C)C(=O)OC1CC2=CC(CC3(C)OC3C3OC(=O)C(=C)C13)OC2=O` (stereo not given), the TGI was determined as 26.2 µM in the assay with SK-MEL-28 melanoma; 13.3 µM in the assay on MALME-3M melanoma; 32.5 µM in the assay on U251 CNS; 25.4 µM in the assay with OVCAR-3 ovarian; 14.7 µM in the assay with MCF7 breast; 18.3 µM in the assay on SF-539 CNS. In addition, the TGI in the assay on IGROV1 ovarian was determined as 38.8 µM; in the assay on TK-10 renal, 15.3 µM; in the assay with MOLT-4 leukemia, 15 µM; with OVCAR-5 ovarian, 34.6 µM.
